From patent publication US20160039825A1 (BIOGEN MA INC., priority 2013, published 2016)

Molecular target: T1, Human ATX protein (Homo sapiens, UniProt Q13822)
T1 construct: made in house
Experiment: Autotaxin (ATX) assay, FRET with FS-3 substrate
Type: biochemical
Details: upper bound bins (no greater than 100, 250 or 500 nM); FS-3 2 μM, ATX 1.0 μg/mL
Summary of the method: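 In-house human ATX (1.0 μg/mL final) was preincubated with compound for 30 min at room temperature in Tris buffer pH 7.4 with NaCl, KCl, CaCl2, MgCl2 and 1 mg/mL fatty acid-free BSA. FS-3 (2 μM final) was added and the plate shaken 2 h at room temperature in the dark. Fluorescence was read at ex 485/em 538 nm.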

| Structure (SMILES) | IC50 [nM] |
| --- | --- |
| O=C(OCc1cc(Cl)cc(C(F)(F)F)c1)N1CCCn2nc(CNC3=NCCN3)cc2C1 [Example 154, 3-chloro-5-(trifluoromethyl)benzyl 2-(((4,5-dihydro-1H-imidazol-2-yl)amino)methyl)-7,8-dihydro-4H-pyrazolo[1,5-a][1,4]diazepine-5(6H)-carboxylate] | ≤ 250 |
| CC(NC1=NCCN1)c1cc2n(n1)CCCN(C(=O)OCc1cc(Cl)cc(C(F)(F)F)c1)C2 (centres unmarked) [Example 157, 3-chloro-5-(trifluoromethyl)benzyl 2-(1-((4,5-dihydro-1H-imidazol-2-yl)amino)ethyl)-7,8-dihydro-4H-pyrazolo[1,5-a][1,4]diazepine-5(6H)-carboxylate] | ≤ 250 |
| O=C(OCc1cc(Cl)cc(C(F)(F)F)c1)N1CCCn2nc(C(=O)N3CCNCC3)cc2C1 [Example 158, 3-chloro-5-(trifluoromethyl)benzyl 2-(piperazine-1-carbonyl)-7,8-dihydro-4H-pyrazolo[1,5-a][1,4]diazepine-5(6H)-carboxylate] | ≤ 100 |
| CN1CC2CCC1CN2C(=O)c1cc2n(n1)CCCN(C(=O)OCc1cc(Cl)cc(C(F)(F)F)c1)C2 (centres unmarked) [Example 159, 3-chloro-5-(trifluoromethyl)benzyl 2-(5-methyl-2,5-diazabicyclo[2.2.2]octane-2-carbonyl)-7,8-dihydro-4H-pyrazolo[1,5-a][1,4]diazepine-5(6H)-carboxylate] | ≤ 100 |
| C[C@H]1CNC[C@H](C)N1C(=O)c1cc2n(n1)CCCN(C(=O)OCc1cc(Cl)cc(C(F)(F)F)c1)C2 [Example 160] | ≤ 100 |
| C[C@@H]1CNC[C@@H](C)N1C(=O)c1cc2n(n1)CCCN(C(=O)OCc1cc(Cl)cc(C(F)(F)F)c1)C2 [Example 161] | ≤ 100 |
| CC1CNCC(C)N1C(=O)c1cc2n(n1)CCN(C(=O)OCc1cc(Cl)cc(C(F)(F)F)c1)C2 (centres unmarked) [Example 162, 3-chloro-5-(trifluoromethyl)benzyl 2-(2,6-dimethylpiperazine-1-carbonyl)-6,7-dihydropyrazolo[1,5-a]pyrazine-5(4H)-carboxylate] | ≤ 100 |
| O=C(OCc1cc(Cl)cc(C(F)(F)F)c1)N1CCCn2nc(C(=O)N3CCC4(CCNCC4)C3)cc2C1 [Example 169] | ≤ 100 |
| N#CC1CN(C(=O)c2cc3n(n2)CCCN(C(=O)OCc2cc(Cl)cc(C(F)(F)F)c2)C3)CCN1 (centres unmarked) [Example 171] | ≤ 100 |
| O=C(NC1=NCCS1)c1cc2n(n1)CCCN(C(=O)OCc1cc(C(F)(F)F)cc(C(F)(F)F)c1)C2 [Example 173] | ≤ 100 |
| O=C(OCc1cc(Cl)cc(C(F)(F)F)c1)N1CCCn2nc(C(=O)N3CCNCC34CCC4)cc2C1 [Example 175] | ≤ 100 |
| CCN1CCN(C(=O)c2cc3n(n2)CCCN(C(=O)OCc2cc(Cl)cc(C(F)(F)F)c2)C3)C2(CC2)C1 [Example 179] | ≤ 100 |
| NCCCCNC(=O)c1cc2n(n1)CCCN(C(=O)OCc1cc(C(F)(F)F)cc(C(F)(F)F)c1)C2 [Example 182] | ≤ 100 |
| CN1CCN(C(=O)c2cc3n(n2)CCCN(C(=O)OCc2cc(Cl)cc(C(F)(F)F)c2)C3)C(C(=O)O)C1 (centres unmarked) [Example 184] | ≤ 100 |
| O=C(OCc1cc(Cl)cc(C(F)(F)F)c1)N1CCCn2nc(C(=O)N3CCNC4(CC4)C3)cc2C1 [Example 187] | ≤ 100 |
| C#CCCCCNC(=O)c1cc2n(n1)CCCN(C(=O)OCc1cc(C(F)(F)F)cc(C(F)(F)F)c1)C2 [Example 190] | ≤ 100 |
| O=C(O)C1CNCCN1C(=O)c1cc2n(n1)CCCN(C(=O)OCc1cc(C(F)(F)F)cc(C(F)(F)F)c1)C2 (centres unmarked) [Example 191] | ≤ 100 |
| O=C(O)C1CN(C(=O)c2cc3n(n2)CCCN(C(=O)OCc2cc(C(F)(F)F)cc(C(F)(F)F)c2)C3)CCN1 (centres unmarked) [Example 192] | ≤ 100 |
| CNC1CCN(C(=O)c2cc3n(n2)CCCN(C(=O)OCc2cc(Cl)cc(C(F)(F)F)c2)C3)C1 (centres unmarked) [Example 195] | ≤ 100 |
| N#CC1CNCCN1C(=O)c1cc2n(n1)CCCN(C(=O)OCc1cc(Cl)cc(C(F)(F)F)c1)C2 (centres unmarked) [Example 196] | ≤ 100 |
| O=C(OCc1cc(Cl)cc(C(F)(F)F)c1)N1CCCn2nc(C(=O)N3CC4CCC3CN4)cc2C1 (centres unmarked) [Example 197] | ≤ 100 |
| CC1CNCC(C)N1C(=O)c1cc2n(n1)CCCN(C(=O)OCc1cc(Cl)cc(C(F)(F)F)c1)C2 (centres unmarked) [Example 199] | ≤ 100 |
| CN1C2CCC1CN(C(=O)c1cc3n(n1)CCCN(C(=O)OCc1cc(Cl)cc(C(F)(F)F)c1)C3)C2 [Example 201] | ≤ 100 |
| CNC1CN(C(=O)c2cc3n(n2)CCCN(C(=O)OCc2cc(Cl)cc(C(F)(F)F)c2)C3)C1 [Example 202] | ≤ 100 |
| O=C(OCc1cc(Cl)cc(C(F)(F)F)c1)N1CCCn2nc(C(=O)N3C4CCC3CNC4)cc2C1 [Example 203] | ≤ 100 |
| O=C(OCc1cc(Cl)cc(C(F)(F)F)c1)N1CCCn2nc(C(=O)N3C[C@@H]4C[C@H]3CN4)cc2C1 [Example 204] | ≤ 100 |

Now from value to molecule:

| IC50 [nM] | Structure (SMILES) |
| --- | --- |
| ≤ 500 | CC(N)c1cc2n(n1)CCCN(C(=O)OCc1cc(C(F)(F)F)cc(C(F)(F)F)c1)C2 (centres unmarked) [Example 147, 3,5-Bis(trifluoromethyl)benzyl 2-(1-aminoethyl)-7,8-dihydro-4H-pyrazolo[1,5-a][1,4]diazepine-5(6H)-carboxylate] |
| ≤ 100 | CC(c1cc2n(n1)CCCN(C(=O)OCc1cc(C(F)(F)F)cc(C(F)(F)F)c1)C2)N1CCCCC1 (centres unmarked) [Example 148, 3,5-Bis(trifluoromethyl)benzyl 2-(1-(piperidin-1-yl)ethyl)-7,8-dihydro-4H-pyrazolo[1,5-a][1,4]diazepine-5(6H)-carboxylate] |
| ≤ 500 | CC(c1cc2n(n1)CCCN(C(=O)OCc1cc(C(F)(F)F)cc(C(F)(F)F)c1)C2)N1CCC(C(=O)O)CC1 (centres unmarked) [Example 149, 1-(1-(5-(((3,5-Bis(trifluoromethyl)benzyl)oxy)carbonyl)-5,6,7,8-tetrahydro-4H-pyrazolo[1,5-a][1,4]diazepin-2-yl)ethyl)piperidine-4-carboxylic acid] |
| ≤ 100 | O=C(OCc1cc(Cl)cc(C(F)(F)F)c1)N1CCCn2nc(CNC3=NCCS3)cc2C1 [Example 153, 3-chloro-5-(trifluoromethyl)benzyl 2-(((4,5-dihydrothiazol-2-yl)amino)methyl)-7,8-dihydro-4H-pyrazolo[1,5-a][1,4]diazepine-5(6H)-carboxylate] |
| ≤ 100 | CC(NC1=NCCS1)c1cc2n(n1)CCCN(C(=O)OCc1cc(Cl)cc(C(F)(F)F)c1)C2 (centres unmarked) [Example 156, 3-chloro-5-(trifluoromethyl)benzyl 2-(1-((4,5-dihydrothiazol-2-yl)amino)ethyl)-7,8-dihydro-4H-pyrazolo[1,5-a][1,4]diazepine-5(6H)-carboxylate] |
| ≤ 100 | C[C@@H]1CNC[C@H](C)N1C(=O)c1cc2n(n1)CCCN(C(=O)OCc1cc(C(F)(F)F)cc(C(F)(F)F)c1)C2 [Example 163] |
| ≤ 100 | C[C@@H]1CNC[C@H](C)N1C(=O)c1cc2n(n1)CCCN(C(=O)OCc1cc(Cl)cc(C(F)(F)F)c1)C2 [Example 164] |
| ≤ 100 | O=C(OCc1cc(Cl)cc(C(F)(F)F)c1)N1CCCn2nc(C(=O)N3CCC4CNCC43)cc2C1 (centres unmarked) [Example 165] |
| ≤ 100 | O=C(OCc1cc(Cl)cc(C(F)(F)F)c1)N1CCCn2nc(C(=O)N3CCC4NCCC43)cc2C1 (centres unmarked) [Example 166] |
| ≤ 100 | O=C(OCc1cc(Cl)cc(C(F)(F)F)c1)N1CCCn2nc(C(=O)N3CC4CCNC4C3)cc2C1 (centres unmarked) [Example 167] |
| ≤ 100 | CN1CC2CN(C(=O)c3cc4n(n3)CCCN(C(=O)OCc3cc(Cl)cc(C(F)(F)F)c3)C4)CC2C1 (centres unmarked) [Example 168] |
| ≤ 100 | O=C(OCc1cc(Cl)cc(C(F)(F)F)c1)N1CCCn2nc(C(=O)N3CC4CNCC4C3)cc2C1 (centres unmarked) [Example 170] |
| ≤ 100 | CCN1CCN(C(=O)c2cc3n(n2)CCCN(C(=O)OCc2cc(Cl)cc(C(F)(F)F)c2)C3)C(C)(C)C1 [Example 172] |
| ≤ 100 | CN1CCN(C(=O)c2cc3n(n2)CCCN(C(=O)OCc2cc(Cl)cc(C(F)(F)F)c2)C3)C2(CCC2)C1 [Example 174] |
| ≤ 100 | CN1CCN(C(=O)c2cc3n(n2)CCCN(C(=O)OCc2cc(Cl)cc(C(F)(F)F)c2)C3)C(C)(C)C1 [Example 176, 3-chloro-5-(trifluoromethyl)benzyl 2-(2,2,4-trimethylpiperazine-1-carbonyl)-7,8-dihydro-4H-pyrazolo[1,5-a][1,4]diazepine-5(6H)-carboxylate] |
| ≤ 100 | CN1CCN(C(=O)c2cc3n(n2)CCCN(C(=O)OCc2cc(Cl)cc(C(F)(F)F)c2)C3)C(C(F)(F)F)C1 (centres unmarked) [Example 178] |
| ≤ 100 | CN1CCN(C(=O)c2cc3n(n2)CCCN(C(=O)OCc2cc(Cl)cc(C(F)(F)F)c2)C3)C2(CC2)C1 [Example 180] |
| ≤ 100 | O=C(OCc1cc(Cl)cc(C(F)(F)F)c1)N1CCCn2nc(C(=O)N3CCNCC3C(F)(F)F)cc2C1 (centres unmarked) [Example 181] |
| ≤ 100 | CN1CCN(C(=O)c2cc3n(n2)CCCN(C(=O)OCc2cc(Cl)cc(C(F)(F)F)c2)C3)C(C#N)C1 (centres unmarked) [Example 183] |
| ≤ 100 | CN1CCN(C(=O)c2cc3n(n2)CCCN(C(=O)OCc2cc(Cl)cc(C(F)(F)F)c2)C3)CC1C(=O)O (centres unmarked) [Example 185] |
| ≤ 100 | CN1CCN(C(=O)c2cc3n(n2)CCCN(C(=O)OCc2cc(Cl)cc(C(F)(F)F)c2)C3)CC1C(F)(F)F (centres unmarked) [Example 186] |
| ≤ 100 | O=C(OCc1cc(Cl)cc(C(F)(F)F)c1)N1CCCn2nc(C(=O)N3CC4CNC(C4)C3)cc2C1 (centres unmarked) [Example 188] |
| ≤ 100 | O=C(OCc1cc(Cl)cc(C(F)(F)F)c1)N1CCCn2nc(C(=O)N3CCNC(C(F)(F)F)C3)cc2C1 (centres unmarked) [Example 189] |
| ≤ 100 | O=C(OCc1cc(Cl)cc(C(F)(F)F)c1)N1CCCn2nc(C(=O)N3CCCNCC3)cc2C1 [Example 193] |
| ≤ 100 | CC1CN(C(=O)c2cc3n(n2)CCCN(C(=O)OCc2cc(Cl)cc(C(F)(F)F)c2)C3)CC(C)N1 (centres unmarked) [Example 198] |
| ≤ 100 | CC1(C)CN(C(=O)c2cc3n(n2)CCCN(C(=O)OCc2cc(Cl)cc(C(F)(F)F)c2)C3)CCN1 [Example 200] |
| ≤ 100 | CCC1CNCCN1C(=O)c1cc2n(n1)CCCN(C(=O)OCc1cc(Cl)cc(C(F)(F)F)c1)C2 (centres unmarked) [Example 205] |
